Source: patent publication US20250277012A1 (Protagonist Therapeutics, Inc., priority 2021, published 2025)
Starred links: 1 amine or outer side, 2 acyl side, 3 side chain; linkers in the order of their positions; H or OH if unused. Positions of bridges follow the written chain, without caps; N, C: chain ends. Non-standard residues stand in square brackets, D forms with d. Residues, ends and D or L forms follow the SMILES beside them. Groups on a side chain read outwards from the residue. ξ: configuration not given here. *: point of attachment. X1 = C[N+](C)(CCNC(=O)CCCCCCCCCCCCCCCCC(=O)O)CC(=O)*; X5 = CCCCCCCCCCCCCCCC(=O)NCC[N+](C)(C)CC(=O)*; C18 diacid = O=C(O)CCCCCCCCCCCCCCCCC(=O)*; Dip = N[C@H](C(=O)O)C(c1ccccc1)c1ccccc1; Pro(3R-OH) = O=C(O)[C@H]1NCC[C@H]1O; Ethylenediamine = C(CN[*:2])N[*:1]; Palmitoyl = CCCCCCCCCCCCCCCC(=O)*; NMeF = CN[C@@H](Cc1ccccc1)C(=O)O; NMeT = CN[C@H](C(=O)O)[C@@H](C)O; 3Pal = N[C@@H](Cc1cccnc1)C(=O)O; NMeE = CN[C@@H](CCC(=O)O)C(=O)O; β3hF = N[C@H](CC(=O)O)Cc1ccccc1; Aad = N[C@@H](CCCC(=O)O)C(=O)O; NMeK = CN[C@@H](CCCCN)C(=O)O; Isovaleryl = CC(C)CC(=O)*; NMeC = CN[C@@H](CS)C(=O)O; Dap = NC[C@H](N)C(=O)O; AEEA = NCCOCCOCC(=O)O; Ahx = NCCCCCC(=O)O; ξC = NC(CS)C(=O)O

Target: T1, ferroportin (Homo sapiens, UniProt Q9NP59)
T1 sequence (Q9NP59 1-571): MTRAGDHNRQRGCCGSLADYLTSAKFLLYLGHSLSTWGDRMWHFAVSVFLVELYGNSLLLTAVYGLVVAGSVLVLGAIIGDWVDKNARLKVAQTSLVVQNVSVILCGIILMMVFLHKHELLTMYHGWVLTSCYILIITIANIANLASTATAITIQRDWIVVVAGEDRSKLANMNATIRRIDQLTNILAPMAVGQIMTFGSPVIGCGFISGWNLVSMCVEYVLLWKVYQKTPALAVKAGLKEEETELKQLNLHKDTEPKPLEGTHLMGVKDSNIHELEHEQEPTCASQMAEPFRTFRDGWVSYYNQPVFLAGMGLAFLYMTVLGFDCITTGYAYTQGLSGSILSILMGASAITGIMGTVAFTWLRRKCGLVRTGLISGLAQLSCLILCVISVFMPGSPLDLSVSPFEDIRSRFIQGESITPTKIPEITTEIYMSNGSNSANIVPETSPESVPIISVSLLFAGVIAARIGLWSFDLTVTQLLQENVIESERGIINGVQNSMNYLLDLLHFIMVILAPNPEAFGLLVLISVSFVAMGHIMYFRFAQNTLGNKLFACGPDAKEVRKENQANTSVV
Experiment: T47D cell-based ferroportin internalization assay in presence of mouse serum albumin (MSA)
Set-up: a human breast carcinoma adherent cell line which endogenously expresses ferroportin; host or cells: T47D
Conditions: Table 6E
In short: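 Peptide potency for inducing ferroportin internalization was measured in T47D cells in the presence of serum albumin. Cells grown in RPMI with fetal bovine serum were seeded in 96-well plates at 80-100 k cells per well in 100 ul and rested overnight. Dilution series of test peptides were preincubated 30 min at room temperature, then added to the cells after the medium was aspirated.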

[1] = T47D internalization assay with MSA
[2] = T47D internalization assay in presence of mouse serum albumin (MSA)

| SMILES | IC50 [1] | IC50 [2] |
| --- | --- | --- |
| CC(C)CC(=O)N[C@@H](CCC(=O)O)C(=O)N[C@H](C(=O)N[C@@H](Cc1cnc[nH]1)C(=O)N[C@H](C(=O)N1CCC[C@H]1C(=O)N[C@H]1CSSC[C@@H](C(=O)N(C)[C@@H](CCCCNC(=O)COCCOCCNC(=O)COCCOCCNC(=O)C[N+](C)(C)CCNC(=O)CCCCCCCCCCCCCCCCC(=O)O)C(=O)N[C@H](CC(=O)N[C@H](CCCCN)C(N)=O)Cc2ccccc2)NC1=O)C(c1ccccc1)c1ccccc1)[C@@H](C)O [compound 159] (Isovaleryl-ETH[Dip]PCC[NMeK]([AEEA-AEEA-X1])[β3hF][dK]-NH2; disulfide 6-7) | 0.01 to 0.1 µM | – |
| CC(C)CC(=O)N[C@@H](CN)C(=O)N[C@H](C(=O)N[C@@H](Cc1c[nH]cn1)C(=O)N[C@H](C(=O)N1CCC[C@H]1C(=O)N[C@H]1CSSC[C@@H](C(=O)N(C)[C@@H](CCCCNC(=O)COCCOCCNC(=O)COCCOCCNC(=O)[C@H](CN)NC(=O)CCCCCCCCCCCCCCCCC(=O)O)C(=O)N[C@H](CC(=O)N[C@H](CCCCN)C(N)=O)Cc2ccccc2)NC1=O)C(c1ccccc1)c1ccccc1)[C@@H](C)O [compound 289] (Isovaleryl-[Dap]TH[Dip]PCC[NMeK]([AEEA-AEEA-Dap-C18 diacid])[β3hF][dK]-NH2; disulfide 6-7) | – | 0.1 to 0.5 µM |
| CCCCCCCCCCCCCCCC(=O)NCC[N+](C)(C)CC(=O)NCCCC[C@@H](C(=O)N[C@H](C(=O)N[C@H](CCCCN)C(N)=O)C(c1ccccc1)c1ccccc1)N(C)C(=O)[C@@H]1CSSC[C@H](NC(=O)[C@@H]2CCCN2C(=O)[C@@H](NC(=O)[C@H](Cc2cnc[nH]2)NC(=O)[C@@H](NC(=O)[C@H](CCC(=O)OC)NC(=O)CC(C)C)[C@@H](C)O)C(c2ccccc2)c2ccccc2)C(=O)N1 [compound 175] (Isovaleryl-E(OMe)TH[Dip]PCC[NMeK](X5)[Dip][dK]-NH2; disulfide 6-7) | 0.001 to 0.01 µM | – |
| CC(C)CC(=O)N[C@@H](CCC(=O)O)C(=O)N[C@H](C(=O)N[C@@H](Cc1cnc[nH]1)C(=O)N[C@H](C(=O)N1CCC[C@H]1C(=O)N[C@H]1CSSC[C@@H](C(=O)N(C)[C@@H](CCCCNC(=O)CCCCCNC(=O)C[N+](C)(C)CCNC(=O)CCCCCCCCCCCCCCCCC(=O)O)C(=O)N[C@H](C(=O)N[C@H](CCCCN)C(N)=O)C(c2ccccc2)c2ccccc2)NC1=O)C(c1ccccc1)c1ccccc1)[C@@H](C)O [compound 198] (Isovaleryl-ETH[Dip]PCC[NMeK]([Ahx-X1])[Dip][dK]-NH2; disulfide 6-7) | 0.01 to 0.1 µM | – |
| COC(=O)CC[C@H](NC(=O)CC(C)C)C(=O)N[C@H](C(=O)N[C@@H](Cc1c[nH]cn1)C(=O)N[C@H](C(=O)N1CCC[C@H]1C(=O)N[C@H]1CSSC[C@@H](C(=O)N[C@H](CCCCNC(=O)CCCCCNC(=O)C[N+](C)(C)CCNC(=O)CCCCCCCCCCCCCCCCC(=O)O)C(=O)N[C@H](CC(=O)N[C@H](CCCCN)C(N)=O)Cc2ccccc2)NC1=O)C(c1ccccc1)c1ccccc1)[C@@H](C)O [compound 213] (Isovaleryl-E(OMe)TH[Dip]PCC[dK]([Ahx-X1])[β3hF][dK]-NH2; disulfide 6-7) | 0.01 to 0.1 µM | – |
| CCCCCCCCCCCCCCCC(=O)NCCCCCC(=O)NCCCC[C@@H](C(=O)N[C@H](C(=O)N[C@H](CCCCN)C(N)=O)C(c1ccccc1)c1ccccc1)N(C)C(=O)[C@@H]1CSSC[C@H](NC(=O)[C@@H]2CCCN2C(=O)[C@@H](NC(=O)[C@H](Cc2cnc[nH]2)NC(=O)[C@@H](NC(=O)[C@H](CCC(=O)O)N(C)C(=O)CC(C)C)[C@@H](C)O)C(c2ccccc2)c2ccccc2)C(=O)N1 [compound 166] (Isovaleryl-[NMeE]TH[Dip]PCC[NMeK]([Ahx-Palmitoyl])[Dip][dK]-NH2; disulfide 6-7) | 0.001 to 0.01 µM | – |
| CC(C)CC(=O)N[C@@H](CCC(=O)O)C(=O)N[C@H](C(=O)N[C@@H](Cc1c[nH]cn1)C(=O)N[C@H](C(=O)N1CCC[C@H]1C(=O)N[C@H]1CSSC[C@@H](C(=O)N(C)[C@@H](CCCCNC(=O)COCCOCCNC(=O)COCCOCCNC(=O)C[N+](C)(C)CCNC(=O)CCCCCCCCCCCCCCCCC(=O)O)C(=O)N[C@H](C(=O)N[C@H](CCCCN)C(N)=O)C(c2ccccc2)c2ccccc2)NC1=O)C(c1ccccc1)c1ccccc1)[C@@H](C)O [compound 158] (Isovaleryl-ETH[Dip]PCC[NMeK]([AEEA-AEEA-X1])[Dip][dK]-NH2; disulfide 6-7) | 0.01 to 0.1 µM | – |
| CC(C)CC(=O)N[C@@H](CCCC(=O)O)C(=O)N[C@H](C(=O)N[C@@H](Cc1cccnc1)C(=O)N[C@H](C(=O)N1CCC[C@H]1C(=O)N[C@H]1CSSC[C@@H](C(=O)N(C)[C@@H](CCCCNC(=O)COCCOCCNC(=O)COCCOCCNC(=O)[C@H](CN)NC(=O)CCCCCCCCCCCCCCCCC(=O)O)C(=O)N[C@H](CC(=O)N[C@H](CCCCN)C(N)=O)Cc2ccccc2)NC1=O)C(c1ccccc1)c1ccccc1)[C@@H](C)O [compound 246] (Isovaleryl-[Aad]T[3Pal][Dip]PCC[NMeK]([AEEA-AEEA-Dap-C18 diacid])[β3hF][dK]-NH2; disulfide 6-7) | – | 0.01 to 0.1 µM |
| CC(C)CC(=O)N[C@@H](CCC(=O)O)C(=O)N[C@H](C(=O)N[C@@H](Cc1c[nH]cn1)C(=O)N[C@H](C(=O)N1CCC[C@H]1C(=O)N[C@H]1CSSC[C@@H](C(=O)N(C)[C@@H](CCCCNC(=O)COCCOCCNC(=O)COCCOCCNC(=O)[C@H](CN)NC(=O)CCCCCCCCCCCCCCCCC(=O)O)C(=O)N(C)[C@@H](Cc2ccccc2)C(=O)N[C@H](CCCCN)C(N)=O)N(C)C1=O)C(c1ccccc1)c1ccccc1)[C@@H](C)O [compound 266] (Isovaleryl-ETH[Dip]PC[NMeC][NMeK]([AEEA-AEEA-Dap-C18 diacid])[NMeF][dK]-NH2; disulfide 6-7) | – | 0.01 to 0.1 µM |
| CC(C)CC(=O)N[C@@H](CCC(=O)O)C(=O)N(C)[C@H](C(=O)N[C@@H](Cc1c[nH]cn1)C(=O)N[C@H](C(=O)N1CCC[C@H]1C(=O)N[C@H]1CSSC[C@@H](C(=O)N(C)[C@@H](CCCCNC(=O)CCCCCNC(=O)C[N+](C)(C)CCNC(=O)CCCCCCCCCCCCCCCCC(=O)O)C(=O)N[C@H](C(=O)N[C@H](CCCCN)C(N)=O)C(c2ccccc2)c2ccccc2)NC1=O)C(c1ccccc1)c1ccccc1)[C@@H](C)O [compound 190] (Isovaleryl-E[NMeT]H[Dip]PCC[NMeK]([Ahx-X1])[Dip][dK]-NH2; disulfide 6-7) | 0.1 to 0.5 µM | – |
| CCCCCCCCCCCCCCCC(=O)NCC[N+](C)(C)CC(=O)NCCCC[C@@H](C(=O)N[C@H](C(N)=O)C(c1ccccc1)c1ccccc1)N(C)C(=O)[C@@H]1CSSC[C@H](NC(=O)[C@@H]2CCCN2C(=O)[C@@H](NC(=O)[C@H](Cc2cnc[nH]2)NC(=O)[C@H]([C@@H](C)O)N(C)C(=O)[C@H](CCC(=O)O)NC(=O)CC(C)C)C(c2ccccc2)c2ccccc2)C(=O)N1 [compound 169] (Isovaleryl-E[NMeT]H[Dip]PCC[NMeK](X5)[Dip]-NH2; disulfide 6-7) | 0.001 to 0.01 µM | – |
| CCCCCCCCCCCCCCCC(=O)NCC[N+](C)(C)CC(=O)NCCCCCC(=O)NCCCC[C@@H](C(=O)N[C@H](C(=O)N[C@H](CCCCN)C(N)=O)C(c1ccccc1)c1ccccc1)N(C)C(=O)[C@@H]1CSSC[C@H](NC(=O)[C@@H]2CCCN2C(=O)[C@@H](NC(=O)[C@H](Cc2cnc[nH]2)NC(=O)[C@@H](NC(=O)[C@H](CCC(=O)O)N(C)C(=O)CC(C)C)[C@@H](C)O)C(c2ccccc2)c2ccccc2)C(=O)N1 [compound 167] (Isovaleryl-[NMeE]TH[Dip]PCC[NMeK]([Ahx-X5])[Dip][dK]-NH2; disulfide 6-7) | 0.001 to 0.01 µM | – |
| CC(C)CC(=O)N[C@@H](CCC(=O)O)C(=O)N1CC[C@@H](O)[C@H]1C(=O)N[C@@H](Cc1c[nH]cn1)C(=O)N[C@H](C(=O)N1CCC[C@H]1C(=O)N[C@H]1CSSC[C@@H](C(=O)N(C)[C@@H](CCCCNC(=O)CCCCCNC(=O)C[N+](C)(C)CCNC(=O)CCCCCCCCCCCCCCCCC(=O)O)C(=O)N[C@H](C(=O)N[C@H](CCCCN)C(N)=O)C(c2ccccc2)c2ccccc2)NC1=O)C(c1ccccc1)c1ccccc1 [compound 191] (Isovaleryl-E[Pro(3R-OH)]H[Dip]PCC[NMeK]([Ahx-X1])[Dip][dK]-NH2; disulfide 6-7) | 0.01 to 0.1 µM | – |
| CCCCCCCCCCCCCCCC(=O)NCCCCCC(=O)NCCCC[C@@H](C(=O)N[C@H](C(=O)NCCN)C(c1ccccc1)c1ccccc1)N(C)C(=O)C1CSSC[C@H](NC(=O)[C@@H]2CCCN2C(=O)[C@@H](NC(=O)[C@H](Cc2c[nH]cn2)NC(=O)[C@@H](NC(=O)[C@H](CCC(=O)O)NC(=O)CC(C)C)[C@@H](C)O)C(c2ccccc2)c2ccccc2)C(=O)N1 (stereo partly drawn) [compound 164] (Isovaleryl-ETH[Dip]PC[ξC][NMeK]([Ahx-Palmitoyl])[Dip]-Ethylenediamine; disulfide 6-7) | 0.001 to 0.01 µM | – |
| CC(C)CC(=O)N[C@H]1CCC(=O)NCCCC[C@H](C(N)=O)NC(=O)[C@H](C(c2ccccc2)c2ccccc2)NC(=O)[C@H](CCCCNC(=O)CCCCCNC(=O)C[N+](C)(C)CCNC(=O)CCCCCCCCCCCCCCCCC(=O)O)N(C)C(=O)[C@@H]2CSSC[C@H](NC(=O)[C@@H]3CCCN3C(=O)[C@H](C(c3ccccc3)c3ccccc3)NC(=O)[C@H](Cc3cnc[nH]3)NC(=O)[C@H]([C@@H](C)O)NC1=O)C(=O)N2 [compound 193] (Isovaleryl-ETH[Dip]PCC[NMeK]([Ahx-X1])[Dip][dK]-NH2; lactam 1-10; disulfide 6-7) | 0.01 to 0.1 µM | – |
